Source: article PMC9238401, “Peptide Conjugates Derived from flg15, Pep13, and PIP1 That Are Active against Plant-Pathogenic Bacteria and Trigger Plant Defense Responses” (Applied and Environmental Microbiology, 2022)
Non-standard residues stand in square brackets, D forms with d. Residues, ends and D or L forms follow the SMILES beside them. *: point of attachment. Butyryl = CCCC(=O)*

Columns and labels:
[1] = test system: Erwinia amylovora PMV6076; assay: In vitro growth inhibition (MIC); assay type: cell-based; settings: TSB, 25°C, 48 h, OD 600 nm (Bioscreen C), three replicates, experiment repeated twice; MIC = lowest concentration with no growth, given as range
In short: (§1)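 Strains were grown 24 h at 25°C on agar, then suspended in sterile water at 10^8 CFU mL^−1 and mixed with peptide dilutions in Trypticase soy broth. Plates were incubated at 25°C with shaking and OD600 read hourly for 48 h. MIC is the lowest concentration with no growth at 48 h.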

[2] = test system: Pseudomonas syringae pv. actinidiae Psa3700.1.1; assay: In vitro growth inhibition (MIC); assay type: cell-based; settings: TSB, 25°C, 48 h, OD 600 nm (Bioscreen C), three replicates, experiment repeated twice; MIC given as range
In short: as §1

[3] = test system: Pseudomonas syringae pv. syringae EPS94; assay: In vitro growth inhibition (MIC); assay type: cell-based; settings: TSB, 25°C, 48 h, OD 600 nm (Bioscreen C), three replicates, experiment repeated twice; MIC given as range
In short: as §1

[4] = test system: Xanthomonas arboricola pv. pruni CFBP5563; assay: In vitro growth inhibition (MIC); assay type: cell-based; settings: TSB, 25°C, 48 h, OD 600 nm (Bioscreen C), three replicates, experiment repeated twice; MIC given as range
In short: as §1

[5] = test system: Xanthomonas fragariae Xf349-9A; assay: In vitro growth inhibition (MIC); assay type: cell-based; settings: TSB, 25°C, 48 h, OD 600 nm (Bioscreen C), three replicates, experiment repeated twice; MIC given as range
In short: as §1

[6] = test system: Xanthomonas axonopodis pv. vesicatoria 2133-2; settings: TSB, 25°C, 48 h, OD 600 nm (Bioscreen C), three replicates, experiment repeated twice; MIC given as range
In short: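 Bacteria grown 24 h (48 h for Xanthomonas axonopodis, X. fragariae) at 25°C, suspended at 10^8 CFU mL^−1, mixed with peptide dilutions in TSB.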

horse erythrocytes = settings: TRIS buffer pH 7.2, 1 h, 37°C, absorbance 540 nm, relative to melittin 100 μM, ± confidence interval (α = 0.05)
In short: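 Hemolysis measured as absorbance at 540 nm of supernatant, expressed as percent of melittin-lysed control after buffer subtraction. Compound solutions (750, 500, 300, 100 μM, Tris-buffered saline pH 7.2) were combined 1:1 with washed horse red cells for 1 h, 37°C, shaking.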

Row | Compound | MIC, Ea [1] | MIC, Psa [2] | MIC, Pss [3] | MIC, Xap [4] | MIC, Xf [5] | MIC, Xav [6] | Percent hemolysis at 50 μM (horse erythrocytes) | Percent hemolysis at 150 μM (horse erythrocytes) | Percent hemolysis at 250 μM (horse erythrocytes) | Percent hemolysis at 375 μM (horse erythrocytes)
1 | CCCC(=O)NCCCC[C@H](NC(=O)[C@H](CCCCN)NC(=O)[C@H](CC(C)C)NC(=O)[C@@H](NC(=O)[C@H](CCCCN)NC(=O)[C@H](CCCCN)NC(=O)[C@@H](Cc1ccccc1)NC(=O)[C@H](CC(C)C)NC(=O)[C@H](CCCCN)NC(=O)[C@H](CCCCN)NC(=O)[C@H](Cc1c[nH]cn1)NC(=O)[C@@H](NC(=O)[C@H](Cc1c[nH]cn1)NC(=O)[C@@H](NC(=O)CNC(=O)[C@H](Cc1ccc(O)cc1)NC(C)=O)[C@@H](C)CC)[C@@H](C)O)[C@@H](C)CC)C(=O)N[C@@H](CC(C)C)C(N)=O [PIP1-BP475] (Ac-YGIHTHKKL[dF]KKILKK(Butyryl)L-NH2) | 3.1 to 6.2 µM | 1.6 to 3.1 µM | 3.1 to 6.2 µM | < 0.8 µM | 12.5 to 25 µM | < 0.8 µM | 4 ± 0.4% | 11 ± 0.5% | 18 ± 0.1% | 24 ± 0.5%
2 | CCCC(=O)NCCCC[C@H](NC(=O)[C@H](CCCCN)NC(=O)[C@H](CC(C)C)NC(=O)[C@@H](NC(=O)[C@H](CCCCN)NC(=O)[C@H](CCCCN)NC(=O)[C@@H](Cc1ccccc1)NC(=O)[C@H](CC(C)C)NC(=O)[C@H](CCCCN)NC(=O)[C@H](CCCCN)NC(=O)[C@H](C)NC(=O)[C@@H](NC(=O)[C@H](CCC(N)=O)NC(=O)[C@H](CC(C)C)NC(=O)CNC(=O)[C@H](C)NC(=O)[C@H](C)NC(=O)[C@H](CC(=O)O)NC(=O)[C@H](CC(=O)O)NC(=O)[C@H](CCCCN)NC(=O)[C@H](C)NC(=O)[C@H](CO)NC(=O)[C@H](CC(N)=O)NC(=O)[C@@H](NC(=O)[C@H](CCCNC(=N)N)NC(C)=O)[C@@H](C)CC)[C@@H](C)CC)[C@@H](C)CC)C(=O)N[C@@H](CC(C)C)C(N)=O [flg15-BP475] (Ac-RINSAKDDAAGLQIAKKL[dF]KKILKK(Butyryl)L-NH2) | 3.1 to 6.2 µM | 3.1 to 6.2 µM | 12.5 to 25 µM | < 0.8 µM | 6.2 to 12.5 µM | < 0.8 µM | 7 ± 0.6% | 28 ± 2.3% | 43 ± 2.7% | 46 ± 3.6%
3 | RINSAKDDAAGLQIA-OH [flg15] | > 100 µM | > 100 µM | > 100 µM | > 100 µM | > 100 µM | > 100 µM | 0 ± 0% | 0 ± 0% | 0 ± 0% | 0 ± 0%
4 | YGIHTH-NH2 [PIP1] | > 50 µM | > 50 µM | > 50 µM | > 50 µM | > 50 µM | > 50 µM | 4 ± 0.8% | 0.5 ± 0.3% | 0 ± 2% | 1 ± 0.1%
